The source of these data is patent US9505800B2, “Extended triterpene derivatives” (Myrexis, Inc., priority 2006, dated 2016).

Structures are written as SMILES.

One data set in a line: in vitro. To be noted: human.
Another data set concerns HIV-1IIIB virus. The data set can be described thus: Determination of a compound's EC50 on MT-2 cell line (HIV-1IIIB infection, XTT/PMS viability read-out). The format is cell-based. To be noted: Table 1; for TI: TI = CC50:EC50 ratio. On the procedure: Drug Preparation—The EC50 value for each compound is determined prior to determining the combination index. Each compound is tested in replicates of three, starting at a final concentration of 1 ug/mL. Compounds are dissolved in DMSO at a stock concentration of 10 mg/mL. Test compounds are serially diluted (4-fold dilutions) in a 96-flat-bottom-well plate. The initial working concentration of compound is 4× the desired final concentration. The final volume of drug per well is 45 uL. Included as controls are at least four wells containing cells only and four containing cells and virus in the absence of drug.
Virus Preparation—The HIV-1IIIB virus generated in the H9 cell line is diluted in culture media. The virus is used at a dilution that will cause 50%-75% cell death in day five post-infection as determined by XTT/PMS vital dye. Virus (45 uL) is added to all wells containing drug as well as the control wells.
Cell Preparation—MT-2 cells are added to each well at a volume of 90 uL per well at a cell concentration of 3.3×10^5 cells per mL. MT-2 cells are human T-cell leukemia cells isolated from cord blood lymphocytes and co-cultured with cells from patients with adult T-cell leukemia. […]
Assay—Culture plates are placed in a 37° C., 5% CO2, humidified incubator. […] XTT, (2,3-Bis(2-methoxy-4-nitro-5-sulfophenyl)-2H-tetrazolium-5-carboxanilide) is a yellow tetrazolium salt that, in the presence of dehydrogenase enzymes of metabolically active cells, is reduced to yield a soluble orange formazan dye, which can be measured by absorbance at 490 (or 450) nm in a microplate reader. […] For each plate to be analyzed, 5 mL of XTT/PMS is needed. […] Plates are placed uncovered into a 5% CO2, 37° C. incubator and read on plate reader at a wavelength of 450 nm after four hour incubation.
Data Compilation—The percent inhibition at a given concentration is determined by using the following formula: (average OD-virus control)/(cell control—virus control). The EC50 for each compound is calculated from the linear regression of percent inhibition.

Data set [1] is described as follows: CC50 (cytotoxicity) reported beside the EC50 values; method not described. The note with it: human, MT-2 cells.

By EC50 is commonly meant the concentration giving half of the maximal effect. For the compound `C=C(C)[C@@H]1CC[C@]2(CCN3CCOCC3)CC[C@]3(C)[C@H](CC[C@@H]4[C@@]5(C)CC[C@H](OC(=O)CC(C)(C)CC(=O)O)C(C)(C)[C@@H]5CC[C@]43C)[C@@H]12`, the CC50 in “in vitro” came out at 74.8 µM. Also, the 50% effective concentration (EC50) with HIV-1IIIB virus (Human immunodeficiency virus 1, MT2, 120 h, extended compound vs non-extended analog, MT-2 cells, HIV-1IIIB, day 5 post infection, XTT/PMS) came out at 0.0221 µM. Moreover, the TI with HIV-1IIIB virus is listed as 3387.
Consider `C=C(C)[C@@H]1CC[C@]2(CN3CCOCC3)CC[C@]3(C)[C@H](CC[C@@H]4[C@@]5(C)CC[C@H](OC(=O)CC(C)(C)CC(=O)O)C(C)(C)[C@@H]5CC[C@]43C)[C@@H]12`, for which the TI in the data set with HIV-1IIIB virus is recorded as 135. This compound displayed a CC50 in data set [1] of 10.4 µM.
